Each block holds one compound with its values, some of them ahead of it.
Experiments:
[1] = Gel formation with vitamin C derivatives; type: physicochemical; details: for time to gel formation: 100 mg vitamin C derivative in 15 mL of 2% silk solution
Protocol: The Tables in FIGS. 89A-89B summarize embodiments of gels of the present disclosure. Ascorbic acid-2-glucoside was the most successful vitamin C derivative at gel formation with gel being formed in a 2% silk solution in 3 days. […] In all cases 100 mg of vitamin C derivative was mixed in 15 mL of 2% silk solution, and all gels had the same appearance as gels created with ascorbic acid.
Gels were also cast with combinations of two vitamin C options. In each case, at least one of the vitamin C options was known to cause gelation (L-ascorbic acid or ascorbic acid-2-glucoside). All combination gels were able to gel at 1% total vitamin C additive concentration. […] Without wishing to be bound by theory, it appears there is a relationship between vitamin C concentration, silk concentration, and gelation. An increase in vitamin C at a given concentration of silk will result in a longer time to gelation or inhibit gelation. This may be due to the vitamin C molecule physically blocking interaction between silk protein fragments or cross-linking of silk protein. Modification to pH may allow additional concentrations of vitamin C and derivatives thereof to be added.
Ascorbyl tetraisopalmitate is a highly viscous, oil soluble liquid that might need the help of an emulsifier to possible dissolve in aqueous silk solution.

[2] = test system: C. albicans and A. brasiliensis; assay: Challenge testing of preservative effect, antifungal (Method A or Method B); type: cell-based
Protocol: Challenge testing of various compositions of the present disclosure to determine preservative effects was performed using the following methods: (1) Method A or (2) Method B. As used herein, a “count” refers to a typical measurement for measuring microbial (i.e., bacterial and fungal) growth.
Method B: • (1) Bacteria were evaluated and were considered to meet a threshold requirement by the following parameters: (i) […] measured no less than 3 log reduction from the initial calculated count after an incubation period of 14 days (i.e., 2 weeks), and (ii) bacteria measured no increase from an incubation period starting at the 14 day count and lasting until the 28 day count (i.e., 2 week incubation period of a 4 week/1 month experiment). • (2) C. albicans was evaluated and considered to meet a threshold requirement by the following parameters: (i) […] measured no less than a 1 log reduction after a 14 day incubation period, and (ii) C. albicans measured no increase from an incubation period starting at the 14 day count and lasting until the to the 28 day count (i.e., 2 week incubation period of a 4 week/1 month experiment). • (3) A. brasiliensis was evaluated and considered to meet a threshold requirement by the following parameters: A. brasiliensis measured no increase from the initial calculated count after an incubation period of 14 days (i.e., a 2 week incubation) and an incubation period of 28 days (i.e., a 4 week/1 month incubation).
Using Method A described above, if the formulation meets the requirements defined under Method A, the microbiological risk is considered to be tolerable (the cosmetic product is protected against microbial proliferation that may present a potential risk for the user) and the cosmetic product is deemed to meet the requirements of this International Standard without additional rationale.
For example, the pump is considered a protective device for risk reduction, i.e., prevention against bacterial and/or fungal growth.

[3] = HPLC chromatograms of vitamin C degradation, aged silk films vs unstabilized vitamin C; type: physicochemical; details: after 1 hour at ambient conditions without chemical stabilization
Protocol: FIGS. 36A and 36B show two HPLC chromatograms from samples comprising vitamin C. […] No degradation products were visible. FIG. 59 is a table summarizing the vitamin C concentration in silk protein fragment-films (2% silk films air dried at RT) of the present disclosure. In FIG. 59 processing conditions included 100° C. extraction for 20 min, RT rinse, LiBr in 60° C. oven for 4-6 hours. FIG. 60 is a table summarizing the stability of vitamin C in chemically stabilized solutions. FIGS. 89A-89B are tables summarizing vitamin C stability in SPF gels without chemical stabilizers as compared to chemically stabilized vitamin C in competitive anti-aging skincare products. […] Without wishing to be bound by theory, it appears there is a relationship between vitamin C concentration, silk concentration, and gelation. An increase in vitamin C at a given concentration of silk will result in a longer time to gelation or inhibit gelation. This may be due to the vitamin C molecule physically blocking interaction between silk protein fragments or cross-linking of silk protein.

[4] = in USSSC formulation, concentration of 0.1%

SMILES: O=C1O[C@H]([C@@H](O)CO)C(O)=C1O[C@H]1O[C@H](CO)[C@@H](O)[C@H](O)[C@H]1O [Ascorbic acid-2-glucoside, Ascorbic Acid-2-Glucoside]
time to gel formation [1]: 3 days

SMILES: COc1ccc(C(=O)[O-])cc1.[Na+] [Sodium anisate]
antifungal preservative effectiveness ([2]; in SER formulation, folded in after gelation, 0.5-1.0%, pH of ˜5.2-5.9, with lemongrass or rosehip oil): effective antifungal preservative
antifungal preservative effectiveness ([2]; in SSC formulation, folded in after gelation, 0.1-1.0% and pH of 4.2-5.9): effective antifungal preservative
antifungal preservative effectiveness ([2]; in USSSC formulation, folded in after gelation, 0.5-1.0% and pH of 4.2-5.9): effective antifungal preservative

SMILES: O=C([O-])c1ccccc1.[Na+] [Sodium benzoate]
antifungal preservative effectiveness ([2]; in SER formulation, concentration of 0.1% and pH of 3.28): effective antifungal preservative
antifungal preservative effectiveness ([2]; in SSC formulation, concentration of 0.1% and pH of 3.7 and 4.2): effective antifungal preservative
antifungal preservative effectiveness [2, 4]: effective antifungal preservatives

SMILES: C/C=C/C=C/C(=O)[O-].[K+] [potassium sorbate]
antifungal preservative effectiveness [2, 4]: effective antifungal preservatives

Results, then the compound that gave them:

ability to dissolve or disperse in aqueous silk solution [1]: unable to dissolve or be dispersed
SMILES: CCCCCCCCC(CCCCCC)C(=O)OC[C@H](OC(=O)C(CCCCCC)CCCCCCCC)[C@H]1OC(=O)C(OC(=O)C(CCCCCC)CCCCCCCC)=C1OC(=O)C(CCCCCC)CCCCCCCC (stereo partly drawn) [Ascorbyl tetraisopalmitate, Ascorbyl Tetraisopalmitate]

time to gel formation [1]: failed to create a gel
SMILES: O=C1O[C@H]([C@@H](O)CO)C([O-])=C1OP(=O)([O-])[O-].[Na+].[Na+].[Na+] [Sodium ascorbyl phosphate from Aromantic, Sodium Ascorbyl Phosphate]

time to gel formation [1]: 28 days
SMILES: O=C1O[C@H]([C@@H](O)CO)C([O-])=C1OP(=O)([O-])[O-].[Na+].[Na+].[Na+] [Sodium ascorbyl phosphate from DSM supplier]

vitamin C degradation products in HPLC chromatogram [3]: degradation products are visible
SMILES: O=C1O[C@H]([C@@H](O)CO)C(O)=C1O [vitamin C, L-ascorbic acid]
